From patent publication US11352606B2, “Low oxygen tension enhances endothelial fate of human pluripotent stem cells” (THE JOHNS HOPKINS UNIVERSITY, priority 2014, dated 2022) come the findings set out here.

The subject of this assay is VEcad and CD31 mRNA expression in EVCs. To be noted: DPI days 3-6, 5% O2, after 12 days. The protocol: Real-time quantitative RT-PCR. Two-step reverse transcription polymerase chain reaction (RT-PCR) was performed on differentiated and undifferentiated (day 0) hPSCs as previously described in accordance with Applied Biosystems manufacturer instructions (Kusuma et al., The FASEB Journal. 2012; 26:4925-4936). For each primer set (CD34, KDR, CD56, VEcad, CD31, ephrinB2, EphB4, Nrp1, Nrp2), the comparative […] method (Applied Biosystems, Foster City, Calif.) was used to calculate the amplification differences between different samples. The values for experiments were averaged and graphed with standard deviations.
ROS detection and inhibition. Previously published protocols were followed to detect and inhibit ROS production (Abaci et al., American Journal of Physiology—Cell Physiology. 2011; 301:C431-C440). For ROS detection, the culture media was replaced with 10 μM 2′,7′-dichlorodihydrofluorescein diacetate (H2-DCFDA) (Invitrogen) in PBS and incubated for 30 min at 37° C. Samples were washed with PBS three times prior to imaging. For ROS inhibition, cells were treated with diphenyleneiodonium (DPI) (Sigma-Aldrich) at a concentration of 10 μM.
DPI-treated cells were maintained in 5% O2 conditions for the second six days of differentiation but without DPI.

[1] abbreviates: RT-PCR normalized to control (atmospheric) EVCs.

Regarding `c1ccc2c(c1)[I+]c1ccccc1-2` [DPI, diphenyleneiodonium], the “CD31 expression compared to EVCs differentiated in 5% O2 without DPI” value is “significantly lower” and the “VEcad expression compared to EVCs differentiated in 5% O2 without DPI” value is “significantly lower”. In addition, under setting [1], the “expression of CD31 compared to control EVCs” value is “lower” and the “expression of VEcad compared to control EVCs” value is “similar”.
